Experiments:
[1] = system: undifferentiated multipotent neuronal precursor cells from the midbrain of mouse embryos; experiment: Differentiation of multipotent neuronal precursor cells with compound in culture medium; type: cell-based; details: 50 μM final concentration once per week
Method: To verify if 9-methyl-β-carboline increases the efficiency of culture media for the experiments with neurons and for tissue engineering, pilot experiments were carried out by way of example with undifferentiated multipotent neuronal precursor cells from the midbrain of mouse embryos (embryonic day 14). By suitable cultivation procedures a cell suspension was produced which was kept for four weeks in a medium that contained, inter alia, growth factors from fibroblasts and the skin (epidermal growth factor). After this time the neuronal precursor cells were differentiated in a medium to promote the maturation of neurons. After a week, about 40% of the cells could be stained by a neuronal marker (β-tubulin, type III). Most other cells were glial cells. A small percentage of the neurons could be colored additionally with the antibody for tyrosin hydroxylase (˜3%). This means that about three percent of the neurons were from the dopaminergic cell type. The enzyme tyrosin hydroxylase can only be found in the midbrain in dopaminergic neurons.
Under corresponding conditions 9-methyl-β-carboline (50 μM final concentration) were added to the culture medium once per week, also once to the differentiation medium. […]

[2] = system: midbrain cells in culture; experiment: Dead (necrotic) cells by propidium iodide staining of cell nuclei; type: cell-based, mice; details: 48 hours, 50 μM; control about 20%
Method: FIG. 4b Percentage of dead (necrotic) cells after incubation with 50 μM 9-methyl-β-carboline for 48 hours 10 DIV-12 DIV.
(§1) Dying cells release the enzyme lactate dehydrogenase (LDH) into the medium. Since cells always die in culture always a small LDH concentration can be detected in the medium as an indirect measure for the vitality of the culture. Compared to control conditions the LDH concentration decreased after incubation with 9-methyl-β-carboline in a dose-dependent manner with a concentration up to 50 μM (FIG. 4a). The number of dead cells can be quantified by staining the cell nuclei with propidium iodide.

[3] = system: human neuroblastoma cell line (SH-SY5Y-cells); experiment: Differentiation and proliferation (bromodeoxyuridine incorporation) of human neuroblastoma cells; type: cell-based
Method: FIG. 5 Percentage of BrdU-positive cells of human neuroblastoma cells after incubation with 50 μM 9-methyl-β-carboline for 48 hours 10 DIV-12 DIV.
FIG. 6 Evidence of the reduction of cell proliferation by incorporation of bromodeoxyuridine into the cell nucleus chromatin.
The experiments were carried out with the human neuroblastoma cell line (SH-SY5Y-cells) and with a cell culture of primary nerve cells from the mice embryo midbrain. […] Moreover, the mentioned compounds induce in the primary culture from the mice embryo midbrain the generation of new, differentiated and functional dopaminergic neurons.
The question whether 9-Alkyl-β-carboline derivatives lead to the differentiation of neurons is of outstanding importance.
This cell line has many characteristics which dopaminergic neurons have as well. […] So this confirms the observations in the primary midbrain cultures that 9-methyl-β-carboline promotes the differentiation and thus the maturation of neuronal cells (FIG. 1a and FIG. 1b).
Cell proliferation can be measured by the incorporation of bromodeoxyuridine. […] This hints at a reduction of cell proliferation. This finding also supports the other findings that 9-alkyl-β-carboline derivatives promote cell differentiation.

[4] = system: midbrain cells in culture; experiment: LDH release of midbrain cells in culture; type: cell-based, mice; details: 48 hours; dose-dependent up to 50 μM
Method: FIG. 4a LDH release after 48 hours of incubation with 50 μM 9-methyl-β-carboline for 48 hours 10 DIV-12 DIV.
as §1

neurons (total) = experiment: Total number of neurons in midbrain culture (different dyes); type: cell-based, mice; details: 50 μM, 48 hours; not as much as dopaminergic neurons
Method: FIG. 3 Percentage of neurons (total) after incubation with 50 μM 9-methyl-β-carboline for 48 hours from 10 DIV-12 DIV.
9-methyl-β-carboline was used to show whether only dopaminergic neurons were influenced, or other neurons or glial cells as well. This question can be answered by the use of different dyes.

[5] = system: brain-derived neurotrophic factor (BDNF); experiment: PCR superarray of RNA from the striata of MPP+ rats: BDNF; type: in vivo, rat
Source text: (§2) To investigate Parkinson's disease acute in vivo models are used for years although chronic models would be a better model for the disease. Another disadvantage of the acute models is that ca. 40% of the animals die from the application of the neurotoxin. Therefore, we have chosen a chronic model in which comparably very low doses of neurotoxin 1-methyl-4-phenylpyridinium (MPP^+) were infused for 28 days into the left lateral ventricle of the rat brain. The substance was continuously applied through osmotic minipumps. Thereby, casualties were completely avoided. After four weeks, either solvent or equimolar amounts of the sample substance, namely neuroprotective betacarboline, resp. 9-alkyl-betacarboline was infused for two weeks via the same catheter. In a preliminary study for dose-finding the MPP^+ dose which leads to a reduction by 40% of the dopamine concentration in the striatum was determined. The dopamine concentration in the striatum is a characteristic marker for Parkinson's disease in which a degeneration of dopaminergic neurons occurs.
An explanation for the effect of the betacarboline was found in the tests of the RNA from the striata of these rats through the PCR superarray method. Accordingly, the betacarboline activates the generation of neurotrophins, thus proteins produced naturally in the body, which are responsible for the growth and differentiation of neurons. […]

[6] = system: dopamine concentration in the striatum; experiment: Chronic MPP+ infusion model of Parkinson's disease, dopamine concentration in the striatum; type: in vivo, rat; details: rat
Source text: In the diagram the dopamine (DA) levels of the left and right striatum of the single rats are indicated.
as §2
The compounds A to L were tested as described in example 8. The test results of the compounds A to L are indicated in the following table in comparison to 9-methyl-β-carboline.

## Cn1c2ccccc2c2ccncc21 [9-methyl-β-carboline]
[1]
  increase of percentage of dopaminergic cells: 25%
[1]; 3 independent experiments
  increase of amount of neurons compared to control conditions: 15%
[2]
  cells in culture that died: about 10%
[3]; 50 μM, 48 hours, BrdU-positive cells
  installation of bromodeoxyuridine into the chromatin in the cell nucleus: decreases
[3]; human neuroblastoma cells
  cellular extensions of neuroblastoma cells: growth of cellular extensions
  proliferation of neuroblastoma cells vs control cells: proliferate less than control cells
[4]
  LDH concentration in the medium compared to control: decreased
Neurons (total)
  total number of neurons: increases
[5]; left striatum
  increase of BDNF compared to rats infused solvent only for six weeks: 4.9 times
[5]; right striatum
  increase of BDNF compared to rats infused solvent only for six weeks: 8.5 times
[6]; 4 weeks MPP+ then 2 weeks compound (equimolar, 0.105 mg/kg/day) into left ventricle
  dopamine concentration in the left striatum: normalized
[6]; chronic MPP+ model
  effect in an established model of Parkinson's disease: neuroprotective effect

Reference: patent US8334299B2, “β-carboline for the treatment of neurodegenerative diseases” (Ellneuroxx, Ltd., priority 2007, dated 2012)
